{"source": "ChEMBL document CHEMBL5550204", "about": "“Discovery of ZJCK-6-46: A Potent, Selective, and Orally Available Dual-Specificity Tyrosine Phosphorylation-Regulated Kinase 1A Inhibitor for the Treatment of Alzheimer's Disease” (J Med Chem, 2024)", "key": {"[1]": {"target": "Glycogen synthase kinase-3 beta (Homo sapiens, UniProt P49841)", "sequence (P49841 whole entry)": "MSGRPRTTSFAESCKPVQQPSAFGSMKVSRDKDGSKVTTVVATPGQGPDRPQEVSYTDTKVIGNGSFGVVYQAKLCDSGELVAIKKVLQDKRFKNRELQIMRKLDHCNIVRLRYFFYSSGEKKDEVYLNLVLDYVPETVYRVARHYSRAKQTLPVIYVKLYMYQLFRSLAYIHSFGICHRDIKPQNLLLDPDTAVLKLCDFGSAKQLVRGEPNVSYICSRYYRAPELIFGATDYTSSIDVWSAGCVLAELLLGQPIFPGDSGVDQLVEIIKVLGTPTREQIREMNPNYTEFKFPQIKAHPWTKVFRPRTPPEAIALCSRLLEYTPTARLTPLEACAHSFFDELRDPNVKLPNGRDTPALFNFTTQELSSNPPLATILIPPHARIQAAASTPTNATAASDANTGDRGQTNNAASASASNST", "experiment": "Inhibition of GSK-3beta (unknown origin) preincubated with enzyme for 10 mins followed by substrate and ATP addition measured after 60 mins by ADP-Glo reagent based assay"}, "[2]": {"experiment": "Half life in Sprague-Dawley rat at 10 mg/kg,po measured upto 24 hrs by LC-MS/MS analysis", "format": "ADME, organism-based", "conditions": "in vivo"}, "[3]": {"experiment": "Drug concentration in Sprague-Dawley rat brain at 10 mg/kg,po measured after 6 hrs by LC-MS/MS analysis", "format": "ADME, organism-based", "conditions": "read-out: Ct"}, "[4]": {"target": "T1, Dual specificity protein kinase CLK1 (Homo sapiens, UniProt P49759)", "experiment": "Inhibition of CLK1 (unknown origin) at 1 uM preincubated with enzyme for 10 mins followed by substrate and ATP addition measured after 60 mins by ADP-Glo reagent based assay relative to control", "conditions": "time 70.0 min"}, "[5]": {"experiment": "Drug concentration in Sprague-Dawley rat plasma at 10 mg/kg,po measured after 6 hrs by LC-MS/MS analysis", "format": "ADME, organism-based"}, "CYP3A4": {"target": "CYP3A4 (Homo sapiens, UniProt P08684)", "sequence (P08684 whole entry)": "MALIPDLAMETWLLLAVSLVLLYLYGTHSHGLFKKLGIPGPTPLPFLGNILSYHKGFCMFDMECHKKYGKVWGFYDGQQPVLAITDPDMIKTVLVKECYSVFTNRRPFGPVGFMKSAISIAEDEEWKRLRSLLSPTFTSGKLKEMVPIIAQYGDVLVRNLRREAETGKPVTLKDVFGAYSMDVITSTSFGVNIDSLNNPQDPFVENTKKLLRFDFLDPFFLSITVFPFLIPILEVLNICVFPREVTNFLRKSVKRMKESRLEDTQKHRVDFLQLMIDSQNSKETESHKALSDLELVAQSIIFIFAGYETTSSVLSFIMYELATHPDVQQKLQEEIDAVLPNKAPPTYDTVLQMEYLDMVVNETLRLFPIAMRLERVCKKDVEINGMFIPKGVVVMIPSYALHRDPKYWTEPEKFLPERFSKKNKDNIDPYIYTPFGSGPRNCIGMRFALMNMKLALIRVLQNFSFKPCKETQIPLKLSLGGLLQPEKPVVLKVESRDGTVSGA", "experiment": "Inhibition of CYP3A4 in human liver microsomes using testosterone as substrate at 10 uM preincubated for 10 mins followed by NADPH addition and measured after 40 mins by LC-MS/MS analysis relative to control", "format": "ADME, Microsome", "conditions": "probe testosterone, time 50 min"}, "CYP2C9": {"target": "CYP2C9 (Homo sapiens, UniProt P11712)", "sequence (P11712 whole entry)": "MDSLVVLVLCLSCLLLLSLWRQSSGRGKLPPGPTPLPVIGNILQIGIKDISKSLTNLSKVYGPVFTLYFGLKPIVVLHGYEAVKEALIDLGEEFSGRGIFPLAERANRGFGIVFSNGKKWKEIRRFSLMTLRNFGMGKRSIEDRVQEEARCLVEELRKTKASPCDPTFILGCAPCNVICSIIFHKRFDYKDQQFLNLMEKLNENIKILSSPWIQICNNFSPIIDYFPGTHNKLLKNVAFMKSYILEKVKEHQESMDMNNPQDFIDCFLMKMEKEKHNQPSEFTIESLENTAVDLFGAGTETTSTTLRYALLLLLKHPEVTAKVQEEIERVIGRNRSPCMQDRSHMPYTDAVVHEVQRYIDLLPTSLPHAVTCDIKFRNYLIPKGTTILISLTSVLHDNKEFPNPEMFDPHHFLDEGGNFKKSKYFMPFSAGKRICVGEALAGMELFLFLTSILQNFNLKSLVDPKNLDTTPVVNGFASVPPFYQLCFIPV", "experiment": "Inhibition of CYP2C9 in human liver microsomes using diclofenac as substrate at 10 uM preincubated for 10 mins followed by NADPH addition and measured after 40 mins by LC-MS/MS analysis relative to control", "format": "ADME, Microsome", "conditions": "probe diclofenac, time 50 min"}, "CYP1A2": {"target": "CYP1A2 (Homo sapiens, UniProt P05177)", "sequence (P05177 whole entry)": "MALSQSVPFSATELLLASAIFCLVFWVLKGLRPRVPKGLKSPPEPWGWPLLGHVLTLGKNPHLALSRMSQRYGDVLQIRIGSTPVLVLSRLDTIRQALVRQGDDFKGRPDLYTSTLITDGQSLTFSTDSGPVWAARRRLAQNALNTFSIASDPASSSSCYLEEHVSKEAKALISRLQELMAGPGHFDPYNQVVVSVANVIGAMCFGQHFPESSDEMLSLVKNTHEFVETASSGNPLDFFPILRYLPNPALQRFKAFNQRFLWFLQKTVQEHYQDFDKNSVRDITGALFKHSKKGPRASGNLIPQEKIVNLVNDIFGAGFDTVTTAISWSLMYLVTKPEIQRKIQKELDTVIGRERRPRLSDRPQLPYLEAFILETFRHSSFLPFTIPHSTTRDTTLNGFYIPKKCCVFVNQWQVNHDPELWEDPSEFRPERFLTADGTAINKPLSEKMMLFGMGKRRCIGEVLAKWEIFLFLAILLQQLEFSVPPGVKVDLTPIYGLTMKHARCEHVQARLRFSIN", "experiment": "Inhibition of CYP1A2 in human liver microsomes using phenacetin as substrate at 10 uM preincubated for 10 mins followed by NADPH addition and measured after 40 mins by LC-MS/MS analysis relative to control", "format": "ADME, Microsome", "conditions": "probe phenacetin, time 50 min"}, "[6]": {"target": "Dual specificity tyrosine-phosphorylation-regulated kinase 3 (Homo sapiens) (UniProt O43781)", "sequence (O43781 whole entry)": "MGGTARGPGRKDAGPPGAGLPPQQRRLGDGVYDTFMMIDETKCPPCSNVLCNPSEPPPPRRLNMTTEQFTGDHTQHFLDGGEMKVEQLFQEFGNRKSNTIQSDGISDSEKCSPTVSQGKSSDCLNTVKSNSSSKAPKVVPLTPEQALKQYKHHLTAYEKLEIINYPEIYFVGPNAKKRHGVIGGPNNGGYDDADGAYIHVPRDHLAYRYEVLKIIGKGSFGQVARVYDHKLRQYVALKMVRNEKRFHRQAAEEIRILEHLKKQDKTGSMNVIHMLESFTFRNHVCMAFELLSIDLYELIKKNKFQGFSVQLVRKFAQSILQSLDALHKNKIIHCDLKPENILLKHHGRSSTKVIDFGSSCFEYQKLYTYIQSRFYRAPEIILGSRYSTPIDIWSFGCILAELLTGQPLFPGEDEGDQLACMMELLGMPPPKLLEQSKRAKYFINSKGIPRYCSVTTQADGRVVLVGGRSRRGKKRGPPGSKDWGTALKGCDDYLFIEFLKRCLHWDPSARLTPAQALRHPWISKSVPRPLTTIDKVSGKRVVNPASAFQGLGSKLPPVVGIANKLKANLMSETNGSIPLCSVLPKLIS", "experiment": "Inhibition of DYRK3 (unknown origin) at 1 uM preincubated with enzyme for 10 mins followed by substrate and ATP addition measured after 60 mins by ADP-Glo reagent based assay relative to control", "conditions": "time 70.0 min"}, "[7]": {"experiment": "Apparent volume of distribution in Sprague-Dawley rat at 2 mg/kg,iv measured upto 24 hrs by LC-MS/MS analysis", "format": "ADME, organism-based", "conditions": "in vivo, read-out: Vz"}, "Mus musculus [8]": {"system": "Mus musculus", "experiment": "Antialzheimer activity in okadaic acid-induced cognitive impairment C57BL/6 mouse assessed as reduction in nerve damage in hippocampal CA1 region at 10 to 30 mg/kg,po once daily for 2 weeks by Nissl staining based microscopy", "format": "functional, organism-based", "conditions": "dose 10-30 mg/kg"}, "[9]": {"experiment": "Half life in Sprague-Dawley rat at 2 mg/kg,iv measured upto 24 hrs by LC-MS/MS analysis", "format": "ADME, organism-based", "conditions": "in vivo"}, "HEK-293T [10]": {"system": "HEK-293T", "experiment": "Cytotoxicity against human HEK293T cells expressing human Tau P301L mutant at 20 uM incubated for 24 hrs by MTT assay", "format": "toxicity, cell-based"}, "Mus musculus [11]": {"system": "Mus musculus", "experiment": "Antialzheimer activity in okadaic acid-induced cognitive impairment C57BL/6 mouse assessed as decrease in escape latency at 10 to 30 mg/kg,po once daily for 2 weeks by Morris water maze test", "format": "functional, organism-based", "conditions": "dose 10-30 mg/kg"}, "HEK-293T [12]": {"system": "HEK-293T", "experiment": "Cytotoxicity against human HEK293T cells expressing human Tau P301L mutant at 0.15625 to 10 uM incubated for 24 hrs by MTT assay", "format": "toxicity, cell-based", "conditions": "dose 0.15625-10 µM"}, "[13]": {"experiment": "Toxicity in okadaic acid-induced cognitive impairment C57BL/6 mouse assessed as change in serum GSH level at 10 to 30 mg/kg,po once daily for 2 weeks", "format": "organism-based", "conditions": "in vivo, 336 h, dose 10-30 mg/kg"}, "SH-SY5Y": {"system": "SH-SY5Y", "experiment": "Cytotoxicity against human SH-SY5Y cells expressing human Tau P301L mutant at 0.15625 to 10 uM incubated for 24 hrs by MTT assay", "format": "functional, cell-based", "conditions": "dose 0.15625-10 µM"}, "Mus musculus [14]": {"system": "Mus musculus", "experiment": "Antialzheimer activity in okadaic acid-induced cognitive impairment C57BL/6 mouse assessed as change in swimming speed at 10 to 30 mg/kg,po once daily for 2 weeks by Morris water maze test", "format": "functional, organism-based", "conditions": "dose 10-30 mg/kg"}, "Cytochrome P450 2C9": {"target": "Cytochrome P450 2C9 (Homo sapiens, UniProt P11712)", "sequence (P11712 whole entry)": "as the sequence (P11712 whole entry) above", "experiment": "Inhibition of CYP2C9 in human liver microsomes using diclofenac as substrate preincubated for 10 mins followed by NADPH addition and measured after 40 mins by LC-MS/MS analysis", "format": "ADME, Microsome"}, "[15]": {"experiment": "Metabolic stability in human plasma assessed as half life at 2 uM incubated upto 60 mins […] by LC-MS/MS analysis", "format": "ADME, cell-free"}, "[16]": {"experiment": "Drug concentration in Sprague-Dawley rat brain at 10 mg/kg,po measured after 1 hr by LC-MS/MS analysis", "format": "ADME, organism-based", "conditions": "read-out: Ct"}, "[17]": {"experiment": "Toxicity in okadaic acid-induced cognitive impairment C57BL/6 mouse assessed as change in body weight at 10 to 30 mg/kg,po once daily for 2 weeks", "format": "organism-based", "conditions": "in vivo, 336 h, dose 10-30 mg/kg"}, "[18]": {"experiment": "MRT (0 to infinity) in Sprague-Dawley rat at 2 mg/kg,iv measured upto 24 hrs by LC-MS/MS analysis", "format": "ADME, organism-based", "conditions": "in vivo"}, "[19]": {"experiment": "Toxicity in okadaic acid-induced cognitive impairment C57BL/6 mouse assessed as change in serum AKP level at 10 to 30 mg/kg,po once daily for 2 weeks", "format": "organism-based", "conditions": "in vivo, 336 h, dose 10-30 mg/kg"}, "[20]": {"experiment": "Cmax in Sprague-Dawley rat at 2 mg/kg,iv measured upto 24 hrs by LC-MS/MS analysis", "format": "ADME, organism-based", "conditions": "in vivo"}, "[21]": {"experiment": "Metabolic stability in human liver microsomes assessed as half life at 1 uM incubated upto 45 mins in presence of NADPH by LC-MS/MS analysis", "format": "ADME, Microsome"}, "[22]": {"experiment": "Acute toxicity in C57BL/6 mouse assessed as change in body weight at 500 mg/kg,po observed after 14 days", "format": "organism-based", "conditions": "in vivo, 336 h, time 14 day"}, "[23]": {"target": "T1, Dual specificity protein kinase CLK1", "experiment": "Inhibition of CLK1 (unknown origin) preincubated with enzyme for 10 mins followed by substrate and ATP addition measured after 60 mins by ADP-Glo reagent based assay"}, "Mus musculus [24]": {"system": "Mus musculus", "experiment": "Antialzheimer activity in okadaic acid-induced cognitive impairment C57BL/6 mouse assessed as increase in cognitive function at 10 to 30 mg/kg,po measured after 7 days by Morris water maze test", "format": "functional, organism-based", "conditions": "dose 10-30 mg/kg, time 7.0 day"}, "CYP2C19": {"target": "CYP2C19 (Homo sapiens, UniProt P33261)", "sequence (P33261 whole entry)": "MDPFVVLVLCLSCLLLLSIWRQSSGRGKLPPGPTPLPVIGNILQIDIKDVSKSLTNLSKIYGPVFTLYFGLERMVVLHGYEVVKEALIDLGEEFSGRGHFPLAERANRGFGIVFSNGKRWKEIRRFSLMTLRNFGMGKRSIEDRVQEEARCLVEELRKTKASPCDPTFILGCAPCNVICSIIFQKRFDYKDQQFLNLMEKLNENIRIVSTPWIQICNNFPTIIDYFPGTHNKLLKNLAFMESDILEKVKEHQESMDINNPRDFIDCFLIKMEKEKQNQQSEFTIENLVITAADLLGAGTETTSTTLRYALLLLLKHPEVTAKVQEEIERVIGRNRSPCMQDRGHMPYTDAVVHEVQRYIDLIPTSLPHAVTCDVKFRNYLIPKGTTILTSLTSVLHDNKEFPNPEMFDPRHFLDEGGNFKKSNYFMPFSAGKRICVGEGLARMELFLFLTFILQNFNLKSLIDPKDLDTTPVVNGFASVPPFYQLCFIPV", "experiment": "Inhibition of CYP2C19 in human liver microsomes using mephenytoin as substrate at 10 uM preincubated for 10 mins followed by NADPH addition and measured after 40 mins by LC-MS/MS analysis relative to control", "format": "ADME, Microsome", "conditions": "probe mephenytoin, time 50 min"}, "[25]": {"experiment": "AUC (0 to t) in Sprague-Dawley rat at 10 mg/kg,po measured upto 24 hrs by LC-MS/MS analysis", "format": "ADME, organism-based", "conditions": "in vivo"}, "[26]": {"target": "Dual specificity tyrosine-phosphorylation-regulated kinase 2 (Homo sapiens) (UniProt Q92630)", "sequence (Q92630 whole entry)": "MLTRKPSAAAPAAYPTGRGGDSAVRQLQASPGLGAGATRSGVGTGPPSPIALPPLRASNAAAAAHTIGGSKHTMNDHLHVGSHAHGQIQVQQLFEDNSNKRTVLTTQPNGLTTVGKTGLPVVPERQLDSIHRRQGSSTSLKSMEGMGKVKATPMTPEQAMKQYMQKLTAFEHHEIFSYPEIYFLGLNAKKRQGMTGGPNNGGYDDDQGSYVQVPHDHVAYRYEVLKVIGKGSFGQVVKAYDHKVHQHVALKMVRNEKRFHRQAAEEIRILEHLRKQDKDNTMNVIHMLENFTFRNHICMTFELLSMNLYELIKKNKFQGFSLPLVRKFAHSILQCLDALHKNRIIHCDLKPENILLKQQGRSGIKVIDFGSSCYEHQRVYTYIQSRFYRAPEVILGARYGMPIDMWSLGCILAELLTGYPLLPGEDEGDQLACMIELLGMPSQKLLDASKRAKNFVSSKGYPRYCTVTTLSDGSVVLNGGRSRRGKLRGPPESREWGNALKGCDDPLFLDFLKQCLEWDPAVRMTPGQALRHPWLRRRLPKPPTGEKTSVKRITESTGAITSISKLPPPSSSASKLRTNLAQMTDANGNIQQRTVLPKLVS", "experiment": "Inhibition of DYRK2 (unknown origin) at 1 uM preincubated with enzyme for 10 mins followed by substrate and ATP addition measured after 60 mins by ADP-Glo reagent based assay relative to control", "conditions": "time 70.0 min"}, "[27]": {"experiment": "AUC (0 to infinity) in Sprague-Dawley rat at 10 mg/kg,po measured upto 24 hrs by LC-MS/MS analysis", "format": "ADME, organism-based", "conditions": "in vivo"}}, "note": "The source made the active and inactive calls. The calls are words filed in the database; no cut-off is given here.", "data": [{"smiles": "Cc1ccc2c(-c3ccc4ncnc(N[C@H](CO)c5ccccc5)c4c3)c[nH]c2n1", "values": [{"measurement": "IC50", "setting": "[1]", "result": 1420, "unit": "nM"}, {"measurement": "half-life", "setting": "[2]", "result": 3.95, "unit": "h"}, {"measurement": "concentration at 6 h", "setting": "[3]", "result": 13.1, "unit": "ng/g"}, {"measurement": "inhibition", "setting": "[4]", "result": 99.5, "unit": "%"}, {"measurement": "concentration at 6 h", "setting": "[5]", "result": 118, "unit": "ng/mL"}, {"measurement": "inhibition at 40 min, 10 µM", "setting": "CYP3A4", "result": 63.3, "unit": "%"}, {"measurement": "inhibition at 40 min, 10 µM", "setting": "CYP2C9", "result": 96.5, "unit": "%"}, {"measurement": "inhibition at 40 min, 10 µM", "setting": "CYP1A2", "result": 61.9, "unit": "%"}, {"measurement": "inhibition", "setting": "[6]", "result": 98.1, "unit": "%"}, {"measurement": "Vd", "setting": "[7]", "result": 5.82, "unit": "L/kg"}, {"measurement": "Activity", "setting": "Mus musculus [8]", "result": "Active"}, {"measurement": "half-life", "setting": "[9]", "result": 2.95, "unit": "h"}, {"measurement": "Activity", "setting": "HEK-293T [10]", "result": "Toxic"}, {"measurement": "Activity", "setting": "Mus musculus [11]", "result": "Active"}, {"measurement": "Activity", "setting": "HEK-293T [12]", "result": "Non-Toxic"}, {"measurement": "Activity", "setting": "[13]", "result": "Non-Toxic"}, {"measurement": "Activity", "setting": "SH-SY5Y", "result": "inactive"}, {"measurement": "Activity", "setting": "Mus musculus [14]", "result": "inactive"}, {"measurement": "IC50", "setting": "Cytochrome P450 2C9", "result": 240, "unit": "nM"}, {"measurement": "half-life at 2 µM", "setting": "[15]", "result": "> 3.33", "unit": "h"}, {"measurement": "concentration at 1 h", "setting": "[16]", "result": 26.9, "unit": "ng/g"}, {"measurement": "Activity", "setting": "[17]", "result": "Non-Toxic"}, {"measurement": "MRT inf", "setting": "[18]", "result": 4.49, "unit": "h"}, {"measurement": "Activity", "setting": "[19]", "result": "Non-Toxic"}, {"measurement": "Cmax", "setting": "[20]", "result": 272, "unit": "ng/mL"}, {"measurement": "half-life at […], 1 µM", "setting": "[21]", "result": 1.53, "unit": "h"}, {"measurement": "Activity", "setting": "[22]", "result": "Non-Toxic"}, {"measurement": "IC50", "setting": "[23]", "result": 1.68, "unit": "nM"}, {"measurement": "Activity", "setting": "Mus musculus [24]", "result": "Active"}, {"measurement": "inhibition at 40 min, 10 µM", "setting": "CYP2C19", "result": 96.9, "unit": "%"}, {"measurement": "AUC(0-t) at 24 h", "setting": "[25]", "result": 2990, "unit": "ng·h/mL"}, {"measurement": "inhibition", "setting": "[26]", "result": 105, "unit": "%"}, {"measurement": "AUC(0-inf)", "setting": "[27]", "result": 3010, "unit": "ng·h/mL"}]}]}
